| melting point | SMILES |
| --- | --- |
| 158 to 160 °C | CCC(CC)c1ccc(Cl)c2nc3n(c12)CCCCN3c1ccc(C(F)(F)F)cc1Br |
| 192 °C | OC1CSC(Oc2cnc(-c3cncnc3)c(F)c2)C(O)C1O (centres undefined) |
| 78 to 80 °C | O=C1OC(COc2ccccc2)CN1CCOC1CCCCO1 (centres undefined) |
| 183 to 184 °C | COC(=O)C1C(=O)Nc2ccc(C(F)(F)F)cc2CC1c1ccccc1Cl (centres undefined) |
| 126 to 128 °C | COc1c(C)cc(NC(=O)C(C)(C)C)cc1C |
| 207 to 211 °C | O=C(O)C1=Cc2cc(F)cc(F)c2OC1C(F)(F)F (centres undefined) |
| 125 to 126 °C | CCOC(=O)C1=C(C)NC(CO)=C(C(=O)OCC)C1c1ccccc1OC (centres undefined) |
| 168 to 169 °C | N#Cc1cccc(CCc2nnc(-c3ccc4nccn4c3)o2)c1 |
| 192 to 194 °C | COC(=O)C1=C(N)C(=O)NCC1 |
| 45 °C | CCCCCCCC(=O)C=Cc1ccc(O)c(OC)c1 |
| 183 to 185 °C | CS(=O)(=O)c1ccc(-c2cnn(-c3cccc(Cl)c3)c(=O)c2Cc2ccc(F)cc2)cc1 |
| > 300 °C | CC1=NN(c2cccc(C(=O)O)c2)C(=O)C1=c1[nH]c(=c2[nH]c(=C3C(=O)N(c4cccc(C(=O)O)c4)N=C3C)c3ccccc23)c2ccccc12 |
| 214 °C | Cc1cccc(-c2nc(N)ncc2-c2ccc(=O)n(C)n2)c1 |
| 212 to 213 °C | CCOC(=O)COC1CCN(C(=O)[C@H](C)NC(=O)c2ccc(C(N)=NO)cc2)CC1 |
| 110 to 112 °C | Cc1cc(=O)n2cccc(OCc3ccccc3)c2n1 |
| 190 to 191 °C | COc1cc2ncnc(N3CCc4cc(F)ccc43)c2cc1OC |
| 139 °C | CCN(CC1CCCC1)c1nc2c(cc1CN(Cc1cc(C(F)(F)F)cc(C(F)(F)F)c1)c1nc(C(F)(F)F)co1)c(C)nn2C |
| 257 to 258 °C | CC1(C)Oc2c(ccc3oc(C(=O)O)cc(=O)c23)-c2ccc(Cl)cc21 |
| 200 to 202 °C | COc1cc(Nc2nccc(-c3ccc(O)cc3)n2)cc(OC)c1OC |
| 287 °C | Cc1[nH]c(C(=O)NCC2=NNC(=O)CC2)c(C)c1-c1nc2ccc(C(=O)c3ccccc3)cc2[nH]1 |
| 118 to 120 °C | CC(C)CC(NC(=O)COc1cccc2ccccc12)C(=O)NC(Cc1ccccc1)C(=O)CSCc1ccco1 (centres undefined) |
| 178 to 179 °C | CC1(C)OC(c2ccc(S(N)(=O)=O)cc2)=C(c2ccc3c(c2)OCO3)C1=O |
| 166 to 167 °C | Cc1c(C(O)Cc2ccccc2)cc(I)[nH]c1=O (centres undefined) |
| 161 to 164 °C | Nc1ncc(-c2ccccc2)nc1Sc1ccc(F)cc1 |

| melting point | SMILES |
| --- | --- |
| 193 to 195 °C | O=C1N(c2ccc(Cl)cc2)c2ncccc2C1(Cc1ccncc1)Cc1ccccn1 (centres undefined) |
| 64 to 66 °C | CCOC(=O)CCC(=O)c1ccc(CCNS(=O)(=O)c2cccc(Cl)c2)cc1 |
| 201 to 202 °C | Cc1ncc(CO)c(C2NC(C(=O)O)C(C)(C)S2)c1O (centres undefined) |
| 221 to 222 °C | O=C1NC(=O)C(Oc2ccc3ccccc3c2)S1 (centres undefined) |
| 113 to 116 °C | COC(=O)C1=C(C)NC(C)=C(C(=O)OC)C1c1cccc(NC(=S)NNC(=O)CN2CCC(c3cccc(OC)c3)CC2)c1 |
| 141 to 142 °C | CNC(=NCCSCc1cnc(C)[nH]1)NC#N |
| 188 to 189 °C | Nc1cccc(O)c1NC(=O)Nc1cccc(C(F)(F)F)c1 |
| 147 to 148 °C | CC(C)(C)OC(=O)CN1CCN(c2ccncc2)C1=O |
| 173 to 176 °C | O=C(O)C1=Cc2cc(OCc3ccccc3)c(OCc3ccccc3)cc2CC1 |
| 178 to 180 °C | CCOC(=O)c1ccc(NC(=O)C=C2c3ccccc3CCc3ccccc32)cc1 |
| 194 to 195 °C | Cn1cc(-c2ccnc(N[C@H]3CC[C@H](O)CC3)n2)c2ccccc21 |
| 150 to 166 °C | O=C(CC(c1ccccc1)(c1ccccc1)c1ccccc1)N1CCC(O)(Cc2ccccc2)CC1 |
| 146 °C | CCCCNc1cc(C(=O)OC)cc(S(N)(=O)=O)c1Oc1ccccc1 |
| 158 to 160 °C | COc1cc2c(cc1OC)/C(=C\c1ccc(OCC(=O)OC(C)(C)C)cc1)C(=O)N2 |
| 207 to 210 °C | CC(C)(C)OC(=O)N1CCN(c2ccc(OC[C@@]3(C)Cn4cc([N+](=O)[O-])nc4O3)cc2Cl)CC1 |
| 117 to 118 °C | CC(C)(O)Cc1ccc(NC(=O)OCc2ccccc2)cc1 |
| 129 to 132 °C | CCCc1c(-c2ccc(Cl)cc2)n[nH]c1-c1cccs1 |
| 200 °C | CC(C)c1cc(O)cc2nc(-c3ccc(O)cc3)oc12 |
| 160 to 161 °C | COCn1ccnc1C(O)(c1ccc(C(F)(F)F)cc1)c1ccc(C(F)(F)F)cc1 |
| 131 to 134 °C | C=CC[C@@H](C(=O)N[C@H](C(=O)N[C@H](C)c1ccccc1)C(C)(C)C)[C@H](OCC)C(=O)OC |
| 51 to 53 °C | CCC(C)(C)c1cccc(NC=O)c1C |
| 93 to 95 °C | CCCOc1ccc2c(c1)C(N(C)S(C)(=O)=O)=CC(C)(C)O2 |
| 217 to 221 °C | O=C(/C=C/c1cccc(NS(=O)(=O)c2ccc(C(=O)Nc3ccc(Cl)c(-c4ccccn4)c3)c(Cl)c2)c1)NO |
| 154 to 155 °C | CCOC(=O)CC1SC(c2cc(C(C)(C)C)c(O)c(C(C)(C)C)c2)N(CCCBr)C1=O (centres undefined) |

| melting point | SMILES |
| --- | --- |
| 145 to 147 °C | COc1ccc(C(=O)NS(=O)(=O)C=Cc2ccc(Cl)c(Cl)c2)cc1OC |
| 138 to 139 °C | CN(C)c1ccc([N+](=O)[O-])c(CO)c1 |
| 220 to 223 °C | Cc1ccc(-c2nnc(S)nc2-c2ccc(C)cc2)cc1 |
| 198 °C | O=C1Nc2cccnc2N(C(=O)NCCN2CCCCC2CN2CCCC2)c2ccccc21 (centres undefined) |
| 104 to 106 °C | Cc1nc2ccc3c(c2o1)C(CCNC(=O)C(F)(F)F)CC3 (centres undefined) |
| 104 to 105 °C | O=C(c1ccc(Br)cc1)c1cccc([N+](=O)[O-])c1 |
| 152 to 154 °C | COc1cc(OC)nc(NC(=O)NS(=O)(=O)c2ccccc2C(O)c2cccs2)n1 (centres undefined) |
| 174 to 175 °C | CCS(=O)(=O)c1ccc(-c2cc(C(F)(F)F)ccc2OCC(=O)O)cc1C(F)(F)F |
| 278 to 280 °C | Oc1ccc(O)c(-c2nc3ccc(O)cc3o2)c1 |
| 186 °C | Cc1ccc(OCn2cc(Cl)cnc2=O)cc1 |
| 270 to 272 °C | O=C(Nc1n[nH]c2nc(Oc3ccc(F)cc3F)ncc12)OCc1ccccc1 |
| 107 to 110 °C | COc1cc2c(c(OC(C)=O)c1)C1CCC3(C)C(O)CCC3C1CC2 (centres undefined) |
| 176 to 179 °C | CS(=O)(=O)Nc1ccc(F)c(C(O)CN)c1 (centres undefined) |
| 153 to 158 °C | CC(C)(COC(c1ccccc1)(c1ccccc1)c1ccccc1)C(=O)O |
| 127 to 138 °C | CC(=O)Nc1ccc(CCC(=O)O)cc1 |
| 166 to 168 °C | CCCCCC1CCc2cc(C(N)=O)ccc2C1 (centres undefined) |
| 201 °C | Cc1cc(C)cc(C(=O)N2CCC(Nc3nc4ccccc4n3Cc3cccs3)CC2Cc2ccccc2)c1 (centres undefined) |
| 210 to 212 °C | CC1(C)CCC(C)(C)c2cc(CCOc3ccc(C(=O)O)c(O)c3)ccc21 |
| 53 to 55 °C | CC(C)(CCCCC(=O)CCCCC1(C(=O)O)CCC1)C(=O)O |
| 260 °C | Cc1c(F)c(N2CCC(N)C2)nc2c1c(=O)c(C(=O)O)cn2-c1ccc(F)cc1F (centres undefined) |
| 45 to 46 °C | CCCCC(CC)(CO)C(=O)O (centres undefined) |
| 211 to 212 °C | Clc1ccc2c(c1)C(c1ccccc1Cl)NCc1c[nH]cc1-2 (centres undefined) |
| 205 to 207 °C | Cc1cn(C)c2c1N(C(=O)CN1CCN(C)CC1)c1ccccc1NC2=O |
| 197 to 199 °C | NCCCC[C@H](O)C(=O)O |

| melting point | SMILES |
| --- | --- |
| 78 to 125 °C | O=C(O)C1(c2ccccc2)CC2CC2C1 (centres undefined) |
| 140 °C | CS(=O)(=O)N1Cc2sccc2C(O)C1 (centres undefined) |
| 156 to 161 °C | CCc1nn(C2CCCC2)c(NC(=O)c2ccnc3ccccc23)c1C#N |
| 180 to 182 °C | O=C1CCC(N2Cc3c(OCc4ccc(CN5CCC(Oc6ccccc6)CC5)cc4)cccc3C2=O)C(=O)N1 (centres undefined) |
| 99 to 101 °C | O=C(O)CCCCc1cc(O)c(O)c(Cl)c1 |
| 118 to 119 °C | N#Cc1cc(-c2cccc(Cl)c2)ccc1N |
| 58 to 60 °C | CC[Si](CC)(CC)CSc1cc(C(C)(C)C)c(O)c(C(C)(C)C)c1 |
| 167 to 168 °C | O=CC(=C(Cl)c1ccc2c(c1)OCO2)c1ccc2c(c1)OCO2 |
| 189 to 190 °C | CC(=O)Nc1ccc2c3c(cccc13)S(=O)(=O)C(C)N2 (centres undefined) |
| 62 to 64 °C | Cc1ccc([C@H]2CCCN2[S@@](=O)C(C)(C)C)cc1 |
| 85 to 86 °C | COC(=O)C(C)(COS(C)(=O)=O)C(=O)c1ccc(Cl)cc1 (centres undefined) |
| 70 to 79 °C | CSC(Oc1cc(C)c2ncc(I)cc2c1)C(=O)NC(C)(C#N)CF (centres undefined) |
| 217 to 221 °C | COc1ccc(-c2nc3ccc(C(C)(C)CNC=O)cc3[nH]2)cn1 |
| 113 °C | CCOC(=O)C1CCCCN1C(=O)c1ccc(Cl)c(C2(C)C(=O)N(Cc3ccc(OC)cc3OC)c3ccc(Cl)cc32)c1 (centres undefined) |
| 247 to 249 °C | O=C(Nc1nc(Cl)c(C(=O)NCc2ccccc2)s1)c1ccccc1 |
| 131 to 134 °C | COc1ccc(CNn2c(=O)ccc3ccc(N4CCC[C@H]4CO)nc32)cc1Cl |
| 227 to 229 °C | CCCc1nc2c(N)nc(C)c(C)c2n1Cc1cc(-c2ccc(F)cc2)no1 |
| 148 to 149 °C | OCC1(Cc2ccc(Cl)c(Cl)c2)CCNCC1 |
| 202 to 204 °C | O=C(O)Cc1c(C(=O)O)c2cc(Oc3ccc(Cl)cc3)ccc2n1-c1ccccc1 |
| 128 to 130 °C | COc1cc(NC(C)=O)c(Cl)cc1C(=O)NN1CCN(CCC(C)C)CC1 |
| 275 to 277 °C | Clc1cccc2[nH]c3c4ccccc4nc-3c(Cl)c12 |

| SMILES | melting point |
| --- | --- |
| CC(C)(C)C(=O)Nc1cccc(-c2ccnc3c(C(=O)c4ccccc4)cnn23)c1 | 160 to 161 °C |
| COc1cc(N)c(Cl)cc1C(=O)NC1CCN(C(C)CC(C(=O)N(C)C)(c2ccccc2)c2ccccc2)CC1OC (centres undefined) | 198 °C |
| Cc1ccc(S(=O)(=O)n2cc(C[C@H]3CCCN3C)c3cc(Br)ccc32)cc1 | 98 to 104 °C |
| COC(=O)c1nc2n(c1C)-c1ccc(Cl)cc1C(c1ccccc1F)=NC2 | 137 to 138 °C |
| CNC1=Nc2sc(Cl)cc2C(c2ccccc2)=NC1 | 247 to 250 °C |
| CCOC(=O)c1nnc2n1-c1sc(Cl)cc1C(c1ccccc1Cl)=NC2 | 180 to 182 °C |
